# Laboratory results published in US20090023773A1, “COMPOSITIONS AND METHODS FOR MODULATING GATED ION CHANNELS” (PainCeptor Pharma Corporation, priority 2007, published 2009).
# Molecular target: T1, hASIC1a (Homo sapiens, UniProt P78348)
# T1 construct: expressed in transfected cells
# T1 sequence (P78348 1-528): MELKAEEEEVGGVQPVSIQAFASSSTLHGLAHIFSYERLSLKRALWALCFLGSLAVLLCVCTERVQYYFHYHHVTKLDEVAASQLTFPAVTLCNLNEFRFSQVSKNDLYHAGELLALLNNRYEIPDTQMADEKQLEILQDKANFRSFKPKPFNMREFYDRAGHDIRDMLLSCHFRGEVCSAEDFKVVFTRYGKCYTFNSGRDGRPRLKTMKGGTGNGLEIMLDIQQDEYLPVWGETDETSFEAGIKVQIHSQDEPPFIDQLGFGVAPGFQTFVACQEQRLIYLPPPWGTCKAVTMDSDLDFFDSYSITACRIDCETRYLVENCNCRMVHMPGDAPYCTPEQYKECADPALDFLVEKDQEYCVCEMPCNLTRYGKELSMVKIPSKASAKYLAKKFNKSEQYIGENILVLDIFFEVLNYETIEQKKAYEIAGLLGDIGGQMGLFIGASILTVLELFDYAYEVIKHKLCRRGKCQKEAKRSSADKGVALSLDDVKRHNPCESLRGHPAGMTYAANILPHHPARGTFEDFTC
# Assay: Fluorescent calcium dye (Fluo-4-NW) assay in cells expressing hASIC1a (Example 1)
# Assay type: cell-based
# Details: CHO cells stably expressing hASIC1a, mild acidic buffer, increasing concentrations; FIGS. 1A-1C
# Experimental: ASIC1a expressing CHO cells are grown in culture medium (DMEM with 10% FBS), in polystyrene culture flasks ([…]) at 37° C. in a humidified atmosphere of 5% CO2. Confluency of cells should be 70-90% on day of plating. Cells are rinsed with 10 ml of PBS and cells are re-suspended by addition of culture medium and trituration with a 25 ml pipette. The cells are seeded at a density of approximately 10^4 cells/ml (50 μl/well and then brought to a total volume of 150 μl/well with culture medium, following 30 minutes incubation) in black-walled, clear bottom, 96-well plates pre-treated with poly-D-lysine (from BD Bioscience). Plated cells were allowed to proliferate for 48-72 h before loading with dye. Fluo-4-NW (500 μg, DiscoveRX) is dissolved in 110 μl DMSO. The Fluo-4-NW stock solution (1000×) is diluted with the assay buffer. A water soluble stock solution (100×) of probenicid (DiscoveRX) and a stock solution (1000×) of pluronic acid (P-127, Molecular Probes) are also added in the loading buffer containing Fluo-4NW dye. The culture medium is aspirated from the wells, and 100 μl of the Fluo-4-NW loading solution is added to each well. The cells are incubated at 37° C. for 30 min. followed by 30 min. incubation at room temperature. The assay buffer contains 90 mM NaCl, 5 mM KCl, 4 mM CaCl2, 0.8 mM MgSO4, 50 mM NMDG, 5 mM Glucose-D, 10 mM HEPES, pH 7.4. After the loading time, the loading buffer is not removed and the fluorescence is measured in FlexStation™ (Molecular Devices, USA), or any other suitable equipment known to the skilled in the art. Temperature: 25° C. First addition: 50 μl test solution at a rate of 26 μl/sec and a starting height of 125 μl. […] Reading intervals: pre-incubation—120 sec. antagonist phase, addition of MES at 145 sec. and reading time with agonist 100 sec (total run time of 240 sec.). Fluorescence obtained after stimulation is corrected for the mean basal fluorescence (in modified Assay Buffer). […] Gated-channel activity was determined by measuring intracellular calcium variation using a fluorescent calcium dye (Fluo-4-NW).
row,inhibition of acid-induced hASIC1a activity (intracellular calcium variation),Structure (SMILES)
1,dose-dependently inhibited,"Cc1cc(OC2CCN(Cc3ccccc3F)C(C)C2)c2cccc(F)c2n1 (centres unmarked) [Compound 6, 8-Fluoro-4-[1-(2-fluoro-benzyl)-2-methyl-piperidin-4-yloxy]-2-methyl-quinoline]"

# System: acute paw inflammation caused by intraplantar injection of λ-carrageenan
# Assay: Carrageenan model for pain (Example 8)
# Assay type: in vivo
# Details: rat; 30 and 100 mg/kg SC, 30 min prior to carrageenan; 4 h post-carrageenan
# Experimental: Acute inflammatory hyperalgesia is induced in rats by unilateral injection of 150 μl of a 3% solution of λ-carrageenan into the plantar surface of the left hind paw 3-5 hours prior to testing. Thermal hyperalgesia, mechanical allodynia, mechanical hyperalgesia, weight bearing asymmetry and paw inflammation were determined. Rats are pretreated with test compounds either administered intravenously (IV), by subcutaneous injection (SC) or by oral gavage (PO).
# Thermal nociceptive thresholds are determined according to the method described elsewhere (Hargreaves et al., 1988). Briefly, through the glass surface, a radiant heat source (8V, 50 W projector bulb) is focused onto the plantar surface of the hind paw. The rat's paw-withdrawal latency to this stimulus is recorded to the nearest 0.1 s. Each latency score is an average of three trials, which are separated by at least 5 min. In all rats, both the injured and uninjured hind paws are similarly tested, allowing direct comparisons between inflamed and non-inflamed paws. […]
# Mechanical hyperalgesia is determined by measuring the difference of withdrawal thresholds in response to increasing pressure in the inflamed vs contralateral paw using the Randall-Sellito Paw pressure meter (IITC Life Science) (Randall L O and Sellito J J., 1957). Briefly, rats are held in a contention jacket suspended by a stand and allowed to acclimate for 10 min. Then the tips of the paw pressure applicator are positioned close to the middle of the plantar and the dorsal area of the paw, avoiding the saphenous nerve innervations and an increasing pressure is applied until the rat removes it. Measures are performed in triplicate for each paw by alternating each paw with an interval of at least 1 min to avoid sensitization. […]
# Carrageenan induced paw oedema is measured with a plethysmometer (IITC Life Science). Briefly, a mark is made on the ankles of the rat and the ipsi and contralateral paw are submerged 3 times into water up to the mark in order to determine the paw volume by calculation of water displacement.
Structure (SMILES),mechanical hyperalgesia,size of the inflammation,thermal hyperalgesia
"Cc1cc(OC2CCN(Cc3ccccc3-c3nnn[nH]3)CC2)c2cc(F)ccc2n1 [Compound 94, 4-(1-(2-(1H-tetrazol-5-yl)benzyl)piperidin-4-yloxy)-6-fluoro-2-methylquinoline]",dose-dependently reversed,reduced,dose-dependently reversed

# Molecular target: T2, recombinant homomeric hASIC1a channels (Homo sapiens, UniProt P78348)
# T2 construct: expressed in transfected cells; host or cells: Xenopus laevis oocytes (nuclear microinjection of expression vector such as pcDNA3)
# T2 sequence (P78348 1-528): T1 sequence (P78348 1-528)
# Assay: Two-electrode voltage clamp in Xenopus laevis oocytes expressing gated ion channels (Example 4)
# Assay type: cell-based
# Details: Table 1; generated using oocytes as in Example 4
row,IC50,Structure (SMILES)
1,> 30 µM,Cc1cc(OC2CCN(Cc3cccnc3C(=O)O)CC2)c2cccc(F)c2n1 [Compound 25]
2,0.1 to 10 µM,"Cc1cc(OC2CCN(Cc3ccccc3F)C(C)C2)c2cccc(F)c2n1 (centres unmarked) [Compound 6, 8-Fluoro-4-[1-(2-fluoro-benzyl)-2-methyl-piperidin-4-yloxy]-2-methyl-quinoline]"
3,> 30 µM,Cc1cc(O[C@H]2CCCN(Cc3ccccc3)C2)c2ccccc2n1 [Compound 20]
4,0.1 to 10 µM,COc1cccc(CN2CCC(Oc3cc(C)nc4ccccc34)CC2)c1 [Compound 14]
5,20.1 to 30 µM,Cc1cc(OC2CCN(C(C)c3ccccc3C#N)CC2)c2cccc(F)c2n1 (centres unmarked) [Compound 18]
6,> 30 µM,Cc1cc(OC2CC(C)(C)N(Cc3ccccc3)C(C)(C)C2)c2ccccc2n1 [Compound 4]
7,0.1 to 10 µM,Cc1cc(OC2CCN(C(C)c3ccccc3C(=O)O)CC2)c2cccc(F)c2n1 (centres unmarked) [Compound 15]

# Same assay, conditions: Table 2; generated using oocytes as in Example 4
row,IC50,Structure (SMILES)
1,0.1 to 10 µM,"Cc1cc(OC2CCN(Cc3ccccc3-c3nnn[nH]3)CC2)c2cc(F)ccc2n1 [Compound 94, 4-(1-(2-(1H-tetrazol-5-yl)benzyl)piperidin-4-yloxy)-6-fluoro-2-methylquinoline]"
2,> 30 µM,Cc1cc(OC2CCN(Cc3ccccc3-c3nnn[nH]3)CC2)c2cc(Br)ccc2n1 [Compound 59]
3,0.1 to 10 µM,Cc1cc(OC2CCN(Cc3ccccc3C(=O)NCCCC(=O)OCc3ccccc3)CC2)c2cccc(F)c2n1 [Compound 61]
4,0.1 to 10 µM,COc1ccc(CN2CCC(Oc3cc(C)nc4c(F)cccc34)CC2)c(F)c1 [Compound 47]
5,> 30 µM,Cc1cc(OC2CCN(Cc3ccccc3C#N)CC2)c2ccccc2n1 [Compound 63]
6,> 30 µM,Cc1cc(OC2CCN(Cc3ccccc3C#N)CC2)c2cc(Br)ccc2n1 [Compound 57]
7,0.1 to 10 µM,Cc1cc(OC2CCN(Cc3ccc(O)c(O)c3)CC2)c2ccccc2n1 [Compound 88]
8,10.1 to 20 µM,Cc1cc(OC2CCN(Cc3c(F)cccc3F)CC2)c2cccc(F)c2n1 [Compound 77]
9,> 30 µM,COc1cc(OC)c(CN2CCC(Oc3cc(C)nc4c(F)cccc34)CC2)c(C(=O)O)c1 [Compound 81]
10,> 30 µM,COc1ccc(CN2CCC(Oc3cc(C)nc4c(F)cccc34)CC2)cn1 [Compound 72]
11,10.1 to 20 µM,Cc1cc(OC2CCN(Cc3ccc4c(c3)OCO4)CC2)c2ccccc2n1 [Compound 86]
12,0.1 to 10 µM,"COc1cc(F)cc2c(OC3CCN(Cc4ccccc4C(=O)O)CC3)cc(C)nc12 [Compound 36, 2-[4-(6-Fluoro-8-methoxy-2-methyl-quinolin-4-yloxy)-piperidin-1-ylmethyl]-benzoic acid]"
13,0.1 to 10 µM,Cc1cc(OC2CCN(Cc3ccccc3-c3nnn[nH]3)CC2)c2cc(Cl)ccc2n1 [Compound 100]
14,0.1 to 10 µM,"COc1cc(F)cc2c(OC3CCN(Cc4ccccc4-c4nnn[nH]4)CC3)cc(C)nc12 [Compound 37, 6-Fluoro-8-methoxy-2-methyl-4-{1-[2-(1H-tetrazol-5-yl)-benzyl]-piperidin-4-yloxy}-quinoline]"
15,> 30 µM,c1ccc(CN2CCC(Oc3nccc4ccccc34)CC2)cc1 [Compound 83]
16,> 30 µM,Cc1cc(NC2CCN(Cc3ccccc3)CC2)c2ccccc2n1 [Compound 40]
17,> 30 µM,Cc1cc(OC2CCN(Cc3ccc(C(=O)O)cc3)CC2)c2cc(O)ccc2n1 [Compound 96]
18,0.1 to 10 µM,Cc1cc(OC2CCN(Cc3ccccc3)C3CCCCC23)c2cccc(F)c2n1 (centres unmarked) [Compound 74]
19,10.1 to 20 µM,COC(=O)c1ccc(NC(=O)c2ccccc2CN2CCC(Oc3cc(C)nc4c(F)cccc34)CC2)cc1 [Compound 51]
20,> 30 µM,Cc1cc(OC2CCN(C(C)C)CC2)c2cccc(F)c2n1 [Compound 39]

# Same assay, conditions: acid-induced inward currents in oocytes injected with hASIC1a cDNA; FIGS. 2A-2C
row,reduction in the current evoked by a mild pH stimulation,Structure (SMILES)
1,clear dose-dependent reduction,"Cc1cc(OC2CCN(Cc3ccccc3F)C(C)C2)c2cccc(F)c2n1 (centres unmarked) [Compound 6, 8-Fluoro-4-[1-(2-fluoro-benzyl)-2-methyl-piperidin-4-yloxy]-2-methyl-quinoline]"
